Experimental data published in patent publication US11117892B2, “Pyrrolo-pyridine derivative compound, method for preparing same, and pharmaceutical composition containing same as active ingredient for prevention or treatment of protein kinase-related diseases” (DAEGU-GYEONGBUK MEDICAL INNOVATION FOUNDATION, priority 2017, dated 2021).

Tests used:
Experiment in all cases: scanMAX Kinase assay panel
Type in all cases: binding
Settings in all cases: read-out: % control
FLT3-autoinhibited = FLT3-autoinhibited (Homo sapiens (Human), UniProt P36888)
Procedure, shortened: (§1)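 Panel: scanMAX. Metric: % control. The 100% anchor is DMSO and the 0% anchor is the positive control.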

FLT3(D835H) = FLT3(D835H) (Homo sapiens (Human), UniProt P36888, D835H)
Procedure, shortened: as §1

RIPK1 = RIPK1 (Homo sapiens (Human), UniProt Q13546)
Procedure, shortened: as §1

TAOK3 = TAOK3 (Homo sapiens (Human), UniProt Q9H2K8)
Procedure, shortened: as §1

ERK3 = ERK3 (Homo sapiens (Human), UniProt Q16659)
Procedure, shortened: as §1

RIOK2 = RIOK2 (Homo sapiens (Human), UniProt Q9BVS4)
Procedure, shortened: as §1

KIT(D816V) = KIT(D816V) (Homo sapiens (Human), UniProt P10721, D816V)
Procedure, shortened: as §1

NLK = NLK (Homo sapiens (Human), UniProt Q9UBE8)
Procedure, shortened: as §1

PKN2 = PKN2 (Homo sapiens (Human), UniProt Q16513)
Procedure, shortened: as §1

TIE1 = TIE1 (Homo sapiens (Human), UniProt P35590)
Procedure, shortened: as §1

VRK2 = VRK2 (Homo sapiens (Human), UniProt Q86Y07)
Procedure, shortened: as §1

KIT(V559D, V654A) = KIT(V559D, V654A) (Homo sapiens (Human), UniProt P10721, V559D/V654A)
Procedure, shortened: as §1

TNK1 = TNK1 (Homo sapiens (Human), UniProt Q13470)
Procedure, shortened: as §1

CDK8 = CDK8 (Homo sapiens (Human), UniProt P49336)
Procedure, shortened: as §1

DDR1 = DDR1 (Homo sapiens (Human), UniProt Q08345)
Procedure, shortened: as §1

FGFR1 = FGFR1 (Homo sapiens (Human), UniProt P11362)
Procedure, shortened: as §1

MAP3K15 = MAP3K15 (Homo sapiens (Human), UniProt Q6ZN16)
Procedure, shortened: as §1

SRPK3 = SRPK3 (Homo sapiens (Human), UniProt Q9UPE1)
Procedure, shortened: as §1

BUB1 = BUB1 (Homo sapiens (Human), UniProt O43683)
Procedure, shortened: as §1

FGFR4 = FGFR4 (Homo sapiens (Human), UniProt P22455)
Procedure, shortened: as §1

[1] = biological target: RSK4(Kin.Dom.1-N-terminal) (Homo sapiens (Human), UniProt Q9UK32)
Procedure, shortened: as §1

EPHA8 = EPHA8 (Homo sapiens (Human), UniProt P29322)
Procedure, shortened: as §1

FLT3(K663Q) = FLT3(K663Q) (Homo sapiens (Human), UniProt P36888, K663Q)
Procedure, shortened: as §1

CSNK2A2 = CSNK2A2 (Homo sapiens (Human), UniProt P19784)
Procedure, shortened: as §1

NEK5 = NEK5 (Homo sapiens (Human), UniProt Q6P3R8)
Procedure, shortened: as §1

CAMK4 = CAMK4 (Homo sapiens (Human), UniProt Q16566)
Procedure, shortened: as §1

SRPK2 = SRPK2 (Homo sapiens (Human), UniProt P78362)
Procedure, shortened: as §1

WEE2 = WEE2 (Homo sapiens (Human), UniProt P0C1S8)
Procedure, shortened: as §1

BRAF(V600E) = BRAF(V600E) (Homo sapiens (Human), UniProt P15056, V600E)
Procedure, shortened: as §1

[2] = biological target: JAK1(JH2domain-pseudokinase) (Homo sapiens (Human), UniProt P23458)
Procedure, shortened: as §1

GRK2 = GRK2 (Homo sapiens (Human), UniProt P25098)
Procedure, shortened: as §1

HIPK3 = HIPK3 (Homo sapiens (Human), UniProt Q9H422)
Procedure, shortened: as §1

NEK9 = NEK9 (Homo sapiens (Human), UniProt Q8TD19)
Procedure, shortened: as §1

WNK4 = WNK4 (Homo sapiens (Human), UniProt Q96J92)
Procedure, shortened: as §1

NDR2 = NDR2 (Homo sapiens (Human), UniProt Q9Y2H1)
Procedure, shortened: as §1

PFTK1 = PFTK1 (Homo sapiens (Human), UniProt O94921)
Procedure, shortened: as §1

ERK1 = ERK1 (Homo sapiens (Human), UniProt P27361)
Procedure, shortened: as §1

PFTAIRE2 = PFTAIRE2 (Homo sapiens (Human), UniProt Q96Q40)
Procedure, shortened: as §1

[3] = biological target: RPS6KA5(Kin.Dom.1-N-terminal) (Homo sapiens (Human), UniProt O75582)
Procedure, shortened: as §1

CDK8, sequence (P49336 whole entry): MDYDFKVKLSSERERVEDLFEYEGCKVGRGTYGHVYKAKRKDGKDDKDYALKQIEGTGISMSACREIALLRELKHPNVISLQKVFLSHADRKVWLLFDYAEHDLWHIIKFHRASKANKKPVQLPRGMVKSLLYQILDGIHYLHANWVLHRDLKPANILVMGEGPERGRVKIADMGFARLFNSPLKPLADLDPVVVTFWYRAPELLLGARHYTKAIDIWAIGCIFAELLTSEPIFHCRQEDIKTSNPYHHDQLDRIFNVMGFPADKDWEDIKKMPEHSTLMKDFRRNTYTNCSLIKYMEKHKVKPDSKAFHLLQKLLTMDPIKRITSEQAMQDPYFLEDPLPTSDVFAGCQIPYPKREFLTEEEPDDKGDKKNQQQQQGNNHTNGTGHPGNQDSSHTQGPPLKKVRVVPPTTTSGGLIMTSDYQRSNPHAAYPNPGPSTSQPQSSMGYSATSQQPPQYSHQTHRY
RIOK2, sequence (Q9BVS4 whole entry): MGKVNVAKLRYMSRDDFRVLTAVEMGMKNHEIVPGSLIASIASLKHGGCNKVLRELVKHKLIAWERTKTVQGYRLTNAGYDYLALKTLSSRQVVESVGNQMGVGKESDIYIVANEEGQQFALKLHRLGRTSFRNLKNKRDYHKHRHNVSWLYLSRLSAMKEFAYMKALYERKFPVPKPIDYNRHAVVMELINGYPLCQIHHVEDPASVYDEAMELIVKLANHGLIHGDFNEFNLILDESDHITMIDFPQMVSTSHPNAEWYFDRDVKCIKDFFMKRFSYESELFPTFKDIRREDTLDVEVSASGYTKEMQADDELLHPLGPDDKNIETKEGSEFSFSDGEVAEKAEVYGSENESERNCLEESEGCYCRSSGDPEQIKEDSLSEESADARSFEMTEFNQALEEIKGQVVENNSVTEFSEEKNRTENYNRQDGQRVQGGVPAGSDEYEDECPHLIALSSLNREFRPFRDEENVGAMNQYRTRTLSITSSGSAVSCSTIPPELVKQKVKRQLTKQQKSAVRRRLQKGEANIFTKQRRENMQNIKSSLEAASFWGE
BRAF(V600E), sequence (P15056 whole entry V600E): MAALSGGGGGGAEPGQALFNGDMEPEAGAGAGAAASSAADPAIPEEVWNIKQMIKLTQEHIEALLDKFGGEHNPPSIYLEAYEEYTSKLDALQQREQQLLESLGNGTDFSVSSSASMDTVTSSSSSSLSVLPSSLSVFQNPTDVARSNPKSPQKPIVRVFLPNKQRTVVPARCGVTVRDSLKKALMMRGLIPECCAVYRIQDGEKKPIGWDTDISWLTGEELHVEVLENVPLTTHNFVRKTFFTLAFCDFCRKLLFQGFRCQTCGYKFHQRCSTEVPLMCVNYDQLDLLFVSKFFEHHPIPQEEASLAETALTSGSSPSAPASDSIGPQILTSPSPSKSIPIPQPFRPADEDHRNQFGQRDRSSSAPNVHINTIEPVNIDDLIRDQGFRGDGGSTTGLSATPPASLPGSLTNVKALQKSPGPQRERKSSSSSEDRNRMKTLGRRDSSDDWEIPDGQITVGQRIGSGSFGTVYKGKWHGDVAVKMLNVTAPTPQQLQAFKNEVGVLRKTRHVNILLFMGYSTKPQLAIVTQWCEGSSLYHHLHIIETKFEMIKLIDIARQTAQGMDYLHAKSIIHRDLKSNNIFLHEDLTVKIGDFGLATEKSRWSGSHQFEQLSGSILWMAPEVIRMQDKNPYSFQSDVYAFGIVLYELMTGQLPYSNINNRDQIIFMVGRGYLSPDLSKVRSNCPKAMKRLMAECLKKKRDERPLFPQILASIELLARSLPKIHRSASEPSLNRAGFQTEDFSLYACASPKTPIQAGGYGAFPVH
PKN2, sequence (Q16513 whole entry): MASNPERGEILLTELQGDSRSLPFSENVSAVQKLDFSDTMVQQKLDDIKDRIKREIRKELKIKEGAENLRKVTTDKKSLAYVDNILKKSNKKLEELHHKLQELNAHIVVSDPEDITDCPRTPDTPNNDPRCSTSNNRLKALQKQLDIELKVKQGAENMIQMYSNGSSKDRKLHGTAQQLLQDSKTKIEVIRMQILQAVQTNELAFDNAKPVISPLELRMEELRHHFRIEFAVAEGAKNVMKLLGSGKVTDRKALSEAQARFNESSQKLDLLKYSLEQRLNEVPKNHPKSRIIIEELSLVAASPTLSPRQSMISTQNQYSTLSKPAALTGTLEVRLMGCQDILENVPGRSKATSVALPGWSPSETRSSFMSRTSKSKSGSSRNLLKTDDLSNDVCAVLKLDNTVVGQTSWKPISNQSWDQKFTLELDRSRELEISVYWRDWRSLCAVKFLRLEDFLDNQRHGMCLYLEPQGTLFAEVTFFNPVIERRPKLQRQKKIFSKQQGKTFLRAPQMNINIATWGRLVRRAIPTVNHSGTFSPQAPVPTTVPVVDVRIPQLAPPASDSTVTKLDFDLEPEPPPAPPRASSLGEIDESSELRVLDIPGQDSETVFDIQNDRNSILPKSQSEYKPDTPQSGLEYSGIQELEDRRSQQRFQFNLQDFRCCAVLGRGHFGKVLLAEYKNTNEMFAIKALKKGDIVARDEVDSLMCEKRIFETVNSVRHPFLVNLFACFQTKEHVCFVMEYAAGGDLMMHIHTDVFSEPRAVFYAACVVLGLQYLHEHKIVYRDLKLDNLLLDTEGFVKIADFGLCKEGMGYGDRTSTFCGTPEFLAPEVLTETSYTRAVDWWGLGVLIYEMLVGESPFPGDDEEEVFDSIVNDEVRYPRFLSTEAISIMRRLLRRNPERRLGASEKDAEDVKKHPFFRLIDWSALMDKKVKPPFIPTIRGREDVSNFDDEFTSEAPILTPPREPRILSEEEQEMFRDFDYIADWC
GRK2, sequence (P25098 whole entry): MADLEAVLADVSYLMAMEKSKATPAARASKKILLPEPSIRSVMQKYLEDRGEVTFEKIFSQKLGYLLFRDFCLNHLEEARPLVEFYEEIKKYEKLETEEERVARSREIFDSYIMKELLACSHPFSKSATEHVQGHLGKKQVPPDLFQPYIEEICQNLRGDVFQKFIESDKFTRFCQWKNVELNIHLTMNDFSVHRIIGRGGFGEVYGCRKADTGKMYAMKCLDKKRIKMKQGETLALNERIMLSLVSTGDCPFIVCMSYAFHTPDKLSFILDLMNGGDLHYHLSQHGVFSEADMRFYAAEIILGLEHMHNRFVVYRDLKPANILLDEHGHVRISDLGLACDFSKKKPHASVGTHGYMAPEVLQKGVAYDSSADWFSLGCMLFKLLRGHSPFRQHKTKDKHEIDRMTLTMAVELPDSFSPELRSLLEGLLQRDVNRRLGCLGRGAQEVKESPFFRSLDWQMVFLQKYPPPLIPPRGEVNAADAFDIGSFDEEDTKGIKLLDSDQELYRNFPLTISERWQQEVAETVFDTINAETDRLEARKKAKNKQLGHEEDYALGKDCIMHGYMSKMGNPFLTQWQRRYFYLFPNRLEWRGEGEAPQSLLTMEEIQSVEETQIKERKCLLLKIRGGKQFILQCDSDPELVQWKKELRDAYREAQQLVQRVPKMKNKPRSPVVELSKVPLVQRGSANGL
KIT(V559D, V654A), sequence (P10721 26-976 V559D/V654A): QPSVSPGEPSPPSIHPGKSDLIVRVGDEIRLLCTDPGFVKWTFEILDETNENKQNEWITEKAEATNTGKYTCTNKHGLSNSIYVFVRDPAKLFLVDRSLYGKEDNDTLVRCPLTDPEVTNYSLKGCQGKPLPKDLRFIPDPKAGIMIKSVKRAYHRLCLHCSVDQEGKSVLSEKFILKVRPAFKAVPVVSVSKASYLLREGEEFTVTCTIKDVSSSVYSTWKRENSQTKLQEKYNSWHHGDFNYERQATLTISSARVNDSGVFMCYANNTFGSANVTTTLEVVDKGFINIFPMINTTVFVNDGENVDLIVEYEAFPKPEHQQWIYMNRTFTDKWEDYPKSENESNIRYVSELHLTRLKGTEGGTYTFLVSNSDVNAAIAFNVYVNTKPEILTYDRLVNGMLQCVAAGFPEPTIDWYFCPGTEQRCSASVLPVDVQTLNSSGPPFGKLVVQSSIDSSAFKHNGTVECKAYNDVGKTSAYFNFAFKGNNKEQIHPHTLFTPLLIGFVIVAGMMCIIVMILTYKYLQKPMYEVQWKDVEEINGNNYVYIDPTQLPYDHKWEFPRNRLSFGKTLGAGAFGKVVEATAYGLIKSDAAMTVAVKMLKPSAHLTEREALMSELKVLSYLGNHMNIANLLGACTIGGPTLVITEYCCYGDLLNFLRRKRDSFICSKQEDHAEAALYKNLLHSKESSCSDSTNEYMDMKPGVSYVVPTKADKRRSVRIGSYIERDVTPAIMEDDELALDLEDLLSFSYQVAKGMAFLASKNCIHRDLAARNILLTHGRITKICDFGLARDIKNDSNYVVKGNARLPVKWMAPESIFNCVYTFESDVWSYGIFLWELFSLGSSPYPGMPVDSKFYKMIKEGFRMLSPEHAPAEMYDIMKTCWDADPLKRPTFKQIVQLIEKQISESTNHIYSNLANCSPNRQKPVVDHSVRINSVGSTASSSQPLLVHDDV
SRPK3, sequence (Q9UPE1 whole entry): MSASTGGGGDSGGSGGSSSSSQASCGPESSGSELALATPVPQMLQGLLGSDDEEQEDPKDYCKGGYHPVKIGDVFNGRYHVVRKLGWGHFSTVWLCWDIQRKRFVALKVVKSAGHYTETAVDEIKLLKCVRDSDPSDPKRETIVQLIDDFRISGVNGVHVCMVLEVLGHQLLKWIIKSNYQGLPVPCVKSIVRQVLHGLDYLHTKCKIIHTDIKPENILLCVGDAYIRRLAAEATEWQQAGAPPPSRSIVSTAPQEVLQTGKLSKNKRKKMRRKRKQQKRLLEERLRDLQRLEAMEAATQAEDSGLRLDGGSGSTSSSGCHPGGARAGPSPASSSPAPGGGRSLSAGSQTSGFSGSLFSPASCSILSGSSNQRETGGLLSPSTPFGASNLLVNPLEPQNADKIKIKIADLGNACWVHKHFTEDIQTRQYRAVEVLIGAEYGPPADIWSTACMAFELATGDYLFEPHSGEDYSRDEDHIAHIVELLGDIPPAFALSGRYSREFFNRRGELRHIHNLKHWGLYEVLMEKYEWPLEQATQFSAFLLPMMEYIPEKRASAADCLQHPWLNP
KIT(D816V), sequence (P10721 26-976 D816V): as the sequence (P10721 26-976 V559D/V654A) above, with D534V, A629V, D791V counted along it

Row | Compound | remaining binding at 1 µM (FLT3-autoinhibited) [%] | remaining binding at 1 µM (FLT3(D835H)) [%] | remaining binding at 1 µM (RIPK1) [%] | remaining binding at 1 µM (TAOK3) [%] | remaining binding at 1 µM (ERK3) [%] | remaining binding at 1 µM (RIOK2) [%] | remaining binding at 1 µM (KIT(D816V)) [%] | remaining binding at 1 µM (NLK) [%] | remaining binding at 1 µM (PKN2) [%] | remaining binding at 1 µM (TIE1) [%] | remaining binding at 1 µM (VRK2) [%] | remaining binding at 1 µM (KIT(V559D, V654A)) [%] | remaining binding at 1 µM (TNK1) [%] | remaining binding at 1 µM (CDK8) [%] | remaining binding at 1 µM (DDR1) [%] | remaining binding at 1 µM (FGFR1) [%] | remaining binding at 1 µM (MAP3K15) [%] | remaining binding at 1 µM (SRPK3) [%] | remaining binding at 1 µM (BUB1) [%] | remaining binding at 1 µM (FGFR4) [%] | further results
1 | CCNc1cc(Nc2ccc(C(=O)N3CCC(N4CCOCC4)CC3)cc2OC)nc2[nH]cc(C#N)c12 [Example 18, 4-(ethylamino)-6-((2-methoxy-4-(4-morpholinopiperidine-1-carbonyl)phenyl)amino)-1H-pyrrolo[2,3-b]pyridine-3-carbonitrile] | 82 | 89 | 94 | 94 | 85 | 63 | 82 | 84 | 92 | 88 | 87 | 97 | 81 | 100 | 98 | 87 | 53 | 96 | 76 | 80 | remaining binding at 1 µM [1]: 81%; remaining binding at 1 µM (EPHA8): 85%; remaining binding at 1 µM (FLT3(K663Q)): 84%; remaining binding at 1 µM (CSNK2A2): 97%; remaining binding at 1 µM (NEK5): 92%; remaining binding at 1 µM (CAMK4): 76%; remaining binding at 1 µM (SRPK2): 100%; remaining binding at 1 µM (WEE2): 91%; remaining binding at 1 µM (BRAF(V600E)): 87%; remaining binding at 1 µM [2]: 82%; remaining binding at 1 µM (GRK2): 71%; remaining binding at 1 µM (HIPK3): 74%; remaining binding at 1 µM (NEK9): 91%; remaining binding at 1 µM (WNK4): 79%; remaining binding at 1 µM (NDR2): 95%; remaining binding at 1 µM (PFTK1): 89%; remaining binding at 1 µM (ERK1): 100%; remaining binding at 1 µM (PFTAIRE2): 79%; remaining binding at 1 µM [3]: 100%
2 | CCNc1cc(Nc2ccc(C(=O)N3CCC(N4CCOCC4)CC3)cc2OC)nc2[nH]cc(C(F)(F)F)c12 [Example 57, (4-((4-(ethylamino)-3-(trifluoromethyl)-1H-pyrrolo[2,3-b]pyridin-6-yl)amino)-3-methoxyphenyl) (4-morpholinopiperidin-1-yl)methanone] | 92 | 100 | 92 | 100 | 94 | 100 | 83 | 84 | 92 | 100 | 100 | 84 | 100 | 90 | 98 | 87 | 100 | 100 | 99 | 92 | remaining binding at 1 µM [1]: 100%; remaining binding at 1 µM (EPHA8): 100%; remaining binding at 1 µM (FLT3(K663Q)): 94%; remaining binding at 1 µM (CSNK2A2): 80%; remaining binding at 1 µM (NEK5): 91%; remaining binding at 1 µM (CAMK4): 88%; remaining binding at 1 µM (SRPK2): 100%; remaining binding at 1 µM (WEE2): 96%; remaining binding at 1 µM (BRAF(V600E)): 94%; remaining binding at 1 µM [2]: 45%; remaining binding at 1 µM (GRK2): 95%; remaining binding at 1 µM (HIPK3): 71%; remaining binding at 1 µM (NEK9): 89%; remaining binding at 1 µM (WNK4): 100%; remaining binding at 1 µM (NDR2): 80%; remaining binding at 1 µM (PFTK1): 95%; remaining binding at 1 µM (ERK1): 98%; remaining binding at 1 µM (PFTAIRE2): 94%; remaining binding at 1 µM [3]: 100%
